{
  "source": "patent US12435060B2",
  "about": "“Acylamino bridged heterocyclic compound, and composition and application thereof” (BEIJING SCITECH-MQ PHARMACEUTICALS LIMITED, priority 2019, dated 2025)",
  "tested_on": "HT29 cells",
  "test": "Inhibition of cell necrosis (CCK8 method), induced programmed necrosis of HT29 cells",
  "assay_type": "cell-based",
  "conditions": "Homo sapiens, HT-29; rescue from necrosis induced by TNF-α 20 ng/mL, AT-406 1 μM, Z-VAD-FMK 20 μM; 16-20 hours; CCK-8, OD 450 nm",
  "method": "Assay Example 2. Assay Method for Compounds Inhibiting Cell Necrosis (CCK8 Method)\nIn this assay example 2, under the condition of inducing programmed cell necrosis, different concentrations of the test compounds were added to test the IC50 of the rescue effect of the test compounds on the programmed necrosis.\n• Compounds: Dissolved in DMSO to make a 10 mM solution; • TNF-α: The initial concentration was 100 μg/mL; • Z-VAD-FMK: Dissolved in DMSO to make a 10 mM solution; • AT-406: Dissolved in DMSO to make a 10 mM solution. I. Experimental Steps • 1) Compound dilution: All test compounds were dissolved in DMSO to prepare a 10 mM stock solution, and the first concentration gradient dilution of the test compounds was completed in DMSO. The gradient dilution factor was 4 times and 9 concentration gradients were made; A 40-fold overall dilution of all compounds was completed in the cell culture medium, and the resulting compound was 10× compound, which will be added to the wells of the 96-well plate containing cells, so that the final cell culture medium was 1× the designed final concentration. The general drug design is 9 concentration gradients, of which the highest final concentration is 25000 nM, the lowest concentration after 4-fold dilution of 9 concentrations is 0.38 nM, and the final concentration of DMSO in all wells is 0.25%. The compound dilution process is shown in FIG. 3. • 2) HT 29 cells in good growth condition were selected, trypsinized, the cells was collected by centrifugation, resuspended in McCOY's 5A complete medium (containing 10% FBS) and counted, and the number of cells and survival rate were recorded. • 3) Cells were inoculated to the 60 wells in the middle of the 96-well culture plate at a density of 12000 cells/80 μL/well, surrounding wells were filled with sterile water, and incubated overnight. • 4) 10 μL of the 10× compound diluted with the medium was added to the assay wells, 10 μL of McCOY's 5A complete medium containing 2.5% DMSO was added to the inducer-free wells and the control wells, mixed and shaked, and incubated for 30 minutes. • 5) Then 10 μL of inducer mixture (TNF-α, AT-406, Z-VAD-FMK with the final concentration of 20 ng/mL, 1 μM, 20 μM) was added into the assay wells and control wells. 10 μL McCOY's 5A complete medium was added to wells without inducer. Cells were cultured in an incubator with 5% CO2, at 37° C. • 6) After culturing for 16-20 hours, 10 μL of CCK-8 reagent was added to each well, and incubated for about 2 hours; • 7) The OD value was read at 450 nm on the multi-function plate reader. • 8) Data processing: Inhibition rate of necrosis (%)=100*(X−B)/(A−B) • A: The OD values of the wells without inducer (containing cells, CCK-8, without compound and inducer); • […]: OD values of assay wells (containing cells, CCK-8, compound, inducer); • B: OD values of control wells (containing cells, CCK-8, inducer, without compound). Then the value were imported into Graphpad Prism5 software for curve fitting and the IC50 values were calculated.",
  "data": [
    {"smiles": "Cc1ccc(OCC2COC2)cc1-c1ccnc(NC(=O)c2nnc(Cc3ccccc3)[nH]2)c1", "note": "[Example 66, 5-benzyl-N-(4-(2-methyl-5-(oxetan-3-ylmethoxy)phenyl)pyridin-2-yl)-4H-1,2,4-triazole-3-carboxamide]", "values": [
      {"measurement": "IC50", "value": "≤ 100", "unit": "nM"}
    ]},
    {"smiles": "Cc1ccc(OCC2CCOCC2)cc1-c1ccnc(NC(=O)c2nnc(Cc3ccccc3)[nH]2)c1", "note": "[Example 67, 5-benzyl-N-(4-(2-methyl-5-((tetrahydro-2H-pyran-4-yl)methoxy)phenyl)pyridin-2-yl)-4H-1,2,4-triazole-3-carboxamide]", "values": [
      {"measurement": "IC50", "value": "≤ 100", "unit": "nM"}
    ]},
    {"smiles": "Cc1ccc(OCCF)cc1-c1ccnc(NC(=O)c2nnc(Cc3ccccc3)[nH]2)c1", "note": "[Example 68, 5-benzyl-N-(4-(5-(2-fluoroethoxy)-2-methylphenyl)pyridin-2-yl)-4H-1,2,4-triazole-3-carboxamide]", "values": [
      {"measurement": "IC50", "value": "100 to 1000", "unit": "nM"}
    ]},
    {"smiles": "Cc1ccc(OCCC2CC2)cc1-c1ccnc(NC(=O)c2nnc(Cc3ccccc3)[nH]2)c1", "note": "[Example 69, 5-benzyl-N-(4-(5-(2-cyclopropylethoxy)-2-methylphenyl)pyridin-2-yl)-4H-1,2,4-triazole-3-carboxamide]", "values": [
      {"measurement": "IC50", "value": "≤ 100", "unit": "nM"}
    ]},
    {"smiles": "Cc1ccc(OCCOCC(C)C)cc1-c1ccnc(NC(=O)c2nnc(Cc3ccccc3)[nH]2)c1", "note": "[Example 70, 5-benzyl-N-(4-(5-(2-isobutoxyethoxy)-2-methylphenyl)pyridin-2-yl)-4H-1,2,4-triazole-3-carboxamide]", "values": [
      {"measurement": "IC50", "value": "≤ 100", "unit": "nM"}
    ]},
    {"smiles": "Cc1ccc(OCCN2CCCC2=O)cc1-c1ccnc(NC(=O)c2nnc(Cc3ccccc3)[nH]2)c1", "note": "[Example 71, 5-benzyl-N-(4-(2-methyl-5-(2-(2-oxopyrrolidin-1-yl)ethoxy)phenyl)pyridin-2-yl)-4H-1,2,4-triazole-3-carboxamide]", "values": [
      {"measurement": "IC50", "value": "≤ 100", "unit": "nM"}
    ]},
    {"smiles": "CSCCCOc1ccc(C)c(-c2ccnc(NC(=O)c3nnc(Cc4ccccc4)[nH]3)c2)c1", "note": "[Example 72, 5-benzyl-N-(4-(2-methyl-5-(3-(methylthio)propoxy)phenyl)pyridin-2-yl)-4H-1,2,4-triazole-3-carboxamide]", "values": [
      {"measurement": "IC50", "value": "≤ 100", "unit": "nM"}
    ]},
    {"smiles": "Cc1ccc(OCCCS(C)(=O)=O)cc1-c1ccnc(NC(=O)c2nnc(Cc3ccccc3)[nH]2)c1", "note": "[Example 73, 5-benzyl-N-(4-(2-methyl-5-(3-(methylsulfonyl)propoxy)phenyl)pyridin-2-yl)-4H-1,2,4-triazole-3-carboxamide]", "values": [
      {"measurement": "IC50", "value": "≤ 100", "unit": "nM"}
    ]},
    {"smiles": "CC(C)(C)OCCOc1ccc(C#N)c(-c2ccnc(NC(=O)c3nnc(Cc4ccccc4)[nH]3)c2)c1", "note": "[Example 74]", "values": [
      {"measurement": "IC50", "value": "100 to 1000", "unit": "nM"}
    ]},
    {"smiles": "Cc1ccc(OCCOC(C)(C)C)cc1-c1ccnc(NC(=O)c2nnc(CC3CCCC3)[nH]2)c1", "note": "[Example 75, N-(4-(5-(2-(tert-butoxy)ethoxy)-2-methylphenyl)pyridin-2-yl)-5-(cyclopentylmethyl)-4H-1,2,4-triazole-3-carboxamide]", "values": [
      {"measurement": "IC50", "value": "≤ 100", "unit": "nM"}
    ]},
    {"smiles": "Cc1ccc(OCCOC(C)(C)C)cc1-c1ccnc(NC(=O)c2nnc(CC3CCCC3)o2)c1", "note": "[Example 76]", "values": [
      {"measurement": "IC50", "value": "> 10000", "unit": "nM"}
    ]},
    {"smiles": "Cc1ccc(OCCOC(C)(C)C)cc1-c1ccnc(NC(=O)c2nnc(CC3CCCCC3)[nH]2)c1", "note": "[Example 77, N-(4-(5-(2-(tert-butoxy)ethoxy)-2-methylphenyl)pyridin-2-yl)-5-(cyclohexylmethyl)-4H-1,2,4-triazole-3-carboxamide]", "values": [
      {"measurement": "IC50", "value": "≤ 100", "unit": "nM"}
    ]},
    {"smiles": "C=Cc1ccc(OCCOC(C)(C)C)cc1-c1ccnc(NC(=O)c2nnc(Cc3ccccc3)[nH]2)c1", "note": "[Example 78, 5-benzyl-N-(4-(5-(2-(tert-butoxy)ethoxy)-2-vinylphenyl)pyridin-2-yl)-4H-1,2,4-triazole-3-carboxamide]", "values": [
      {"measurement": "IC50", "value": "≤ 100", "unit": "nM"}
    ]},
    {"smiles": "Cc1ccc(OCC2CCOCC2)cc1-c1ccnc(NC(=O)c2nnc(CC3CCCC3)[nH]2)c1", "note": "[Example 79, 5-(cyclopentylmethyl)-N-(4-(2-methyl-5-((tetrahydro-2H-pyran-4-yl)methoxy)phenyl)pyridin-2-yl)-4H-1,2,4-triazole-3-carboxamide]", "values": [
      {"measurement": "IC50", "value": "≤ 100", "unit": "nM"}
    ]},
    {"smiles": "Cc1ccc(OCC2CCOCC2)cc1-c1ccnc(NC(=O)c2nnc(CC3CCCCC3)[nH]2)c1", "note": "[Example 80, 5-(cyclohexylmethyl)-N-(4-(2-methyl-5-((tetrahydro-2H-pyran-4-yl)methoxy)phenyl)pyridin-2-yl)-4H-1,2,4-triazole-3-carboxamide]", "values": [
      {"measurement": "IC50", "value": "≤ 100", "unit": "nM"}
    ]},
    {"smiles": "Cc1ccc(OCCCOC2CCC2)cc1-c1ccnc(NC(=O)c2nnc(Cc3ccccc3)[nH]2)c1", "note": "[Example 81, 5-benzyl-N-(4-(5-(3-cyclobutoxypropoxy)-2-methylphenyl)pyridin-2-yl)-4H-1,2,4-triazole-3-carboxamide]", "values": [
      {"measurement": "IC50", "value": "≤ 100", "unit": "nM"}
    ]},
    {"smiles": "C=CCOc1ccc(C)c(-c2ccnc(NC(=O)c3nnc(Cc4ccccc4)[nH]3)c2)c1", "note": "[Example 82, N-(4-(5-(allyloxy)-2-methylphenyl)pyridin-2-yl)-5-benzyl-4H-1,2,4-triazole-3-carboxamide]", "values": [
      {"measurement": "IC50", "value": "100 to 1000", "unit": "nM"}
    ]},
    {"smiles": "Cc1ccc(OCCCOC(C)C)cc1-c1ccnc(NC(=O)c2nnc(Cc3ccccc3)[nH]2)c1", "note": "[Example 83, 5-benzyl-N-(4-(5-(3-isopropoxypropoxy)-2-methylphenyl)pyridin-2-yl)-4H-1,2,4-triazole-3-carboxamide]", "values": [
      {"measurement": "IC50", "value": "≤ 100", "unit": "nM"}
    ]},
    {"smiles": "Cc1ccc(OCCCN2CCCCC2=O)cc1-c1ccnc(NC(=O)c2nnc(Cc3ccccc3)[nH]2)c1", "note": "[Example 84]", "values": [
      {"measurement": "IC50", "value": "≤ 100", "unit": "nM"}
    ]},
    {"smiles": "COCCOCCOc1ccc(C)c(-c2ccnc(NC(=O)c3nnc(Cc4ccccc4)[nH]3)c2)c1", "note": "[Example 85, 5-benzyl-N-(4-(5-(2-(2-methoxyethoxy)ethoxy)-2-methylphenyl)pyridin-2-yl)-4H-1,2,4-triazole-3-carboxamide]", "values": [
      {"measurement": "IC50", "value": "≤ 100", "unit": "nM"}
    ]},
    {"smiles": "Cc1ccc(OC2COC2)cc1-c1ccnc(NC(=O)c2nnc(Cc3ccccc3)[nH]2)c1", "note": "[Example 86, 5-benzyl-N-(4-(2-methyl-5-(oxetan-3-yloxy)phenyl)pyridin-2-yl)-4H-1,2,4-triazole-3-carboxamide]", "values": [
      {"measurement": "IC50", "value": "≤ 100", "unit": "nM"}
    ]},
    {"smiles": "Cc1ccc(OCCC2CCOCC2)cc1-c1ccnc(NC(=O)c2nnc(Cc3ccccc3)[nH]2)c1", "note": "[Example 87, 5-benzyl-N-(4-(2-methyl-5-(2-(tetrahydro-2H-pyran-4-yl)ethoxy)phenyl)pyridin-2-yl)-4H-1,2,4-triazole-3-carboxamide]", "values": [
      {"measurement": "IC50", "value": "≤ 100", "unit": "nM"}
    ]},
    {"smiles": "Cc1ccc(OCCC2CCOCC2)cc1-c1ccnc(NC(=O)c2nnc(CC3CCCC3)[nH]2)c1", "note": "[Example 88, 5-(cyclopentylmethyl)-N-(4-(2-methyl-5-(2-(tetrahydro-2H-pyran-4-yl)ethoxy)phenyl)pyridin-2-yl)-4H-1,2,4-triazole-3-carboxamide]", "values": [
      {"measurement": "IC50", "value": "≤ 100", "unit": "nM"}
    ]},
    {"smiles": "Cc1ccc(OCCC2CCOCC2)cc1-c1ccnc(NC(=O)c2nnc(CC3CCCCC3)[nH]2)c1", "note": "[Example 89, 5-(cyclohexylmethyl)-N-(4-(2-methyl-5-(2-(tetrahydro-2H-pyran-4-yl)ethoxy)phenyl)pyridin-2-yl)-4H-1,2,4-triazole-3-carboxamide]", "values": [
      {"measurement": "IC50", "value": "≤ 100", "unit": "nM"}
    ]},
    {"smiles": "Cc1ccc(OCCCC(C)C#N)cc1-c1ccnc(NC(=O)c2nnc(Cc3ccccc3)[nH]2)c1", "note": "(centres unmarked) [Example 90, 5-benzyl-N-(4-(5-((4-cyanopentyl)oxy)-2-methylphenyl)pyridin-2-yl)-4H-1,2,4-triazole-3-carboxamide]", "values": [
      {"measurement": "IC50", "value": "≤ 100", "unit": "nM"}
    ]},
    {"smiles": "Cc1ccc(OCCCCC#N)cc1-c1ccnc(NC(=O)c2nnc(Cc3ccccc3)[nH]2)c1", "note": "[Example 91, 5-benzyl-N-(4-(5-(4-cyanobutoxy)-2-methylphenyl)pyridin-2-yl)-4H-1,2,4-triazole-3-carboxamide]", "values": [
      {"measurement": "IC50", "value": "≤ 100", "unit": "nM"}
    ]},
    {"smiles": "COc1cccc(C)c1-c1ccnc(NC(=O)c2nnc(Cc3ccccc3)[nH]2)c1", "note": "[Example 92, 5-benzyl-N-(4-(2-methoxy-6-methylphenyl)pyridin-2-yl)-4H-1,2,4-triazole-3-carboxamide]", "values": [
      {"measurement": "IC50", "value": "100 to 1000", "unit": "nM"}
    ]},
    {"smiles": "CCOc1cccc(C)c1-c1ccnc(NC(=O)c2nnc(Cc3ccccc3)[nH]2)c1", "note": "[Example 93, 5-benzyl-N-(4-(2-ethoxy-6-methylphenyl)pyridin-2-yl)-4H-1,2,4-triazole-3-carboxamide]", "values": [
      {"measurement": "IC50", "value": "1000 to 10000", "unit": "nM"}
    ]},
    {"smiles": "COCCOc1cccc(C)c1-c1ccnc(NC(=O)c2nnc(Cc3ccccc3)[nH]2)c1", "note": "[Example 94, 5-benzyl-N-(4-(2-(2-methoxyethoxy)-6-methylphenyl)pyridin-2-yl)-4H-1,2,4-triazole-3-carboxamide]", "values": [
      {"measurement": "IC50", "value": "1000 to 10000", "unit": "nM"}
    ]}
  ]
}
